{
  "source": "patent US11285130B2",
  "about": "“Treatment of mitochondrial diseases” (Khondrion IP B.V., priority 2017, dated 2022)",
  "assay": "ECG post-hoc analysis, MAD study",
  "assay_type": "in vivo, human",
  "design": "QTcF: largest median baseline increase / QTcF: largest individual increase: unit not given here",
  "description": "The changes from baseline (pre-dose assessment on Day 1) for body weight, physical examinations, vital signs, ECG-variables and clinical laboratory variables were determined for each time point. Treatment-emergent laboratory and ECG abnormalities as well as adverse events were monitored throughout the study, up to 28 Days after the last study drug intake.\nThe goal of this post-hoc optimization study was to repeat the ECG assessment with an highly automated computer-assisted approach where in addition to the re-evaluation of standard intervals (PR, QRS and QT intervals), a set of parameters describing repolarization morphology were considered. The morphology indices were the TpTe interval (interval from the T wave apex to the end of the T wave), the TpTe/QT index (the ratio between the TpTe interval and the QT interval), Tamp (the amplitude in microvolt units of the T wave) and TSym (an index of repolarization morphology based on the symmetry of the T wave).\nECGs were digitally recorded using a Schiller AT104 ECG machine (500 Hz, 1 μV). Cardiac interval measurements were performed on the Global Superimposed Median Beat (GSMB), a methodology that allows measurements that consider each of the 12 individual median beats. This measurement methodology ensures that the PR, QRS, and QT interval are measured from the earliest onset in any lead to the latest deflection in any lead. Cardiologist overview of the computer-based measurements is based on the superimposed (overlapped) display of the individual median beats, to assure measurements are performed at the earliest onset of any viable lead to the latest offset of any viable lead.\nThe RR interval used for heart-rate correction of the QT interval (QTcB) was based on all the beats in the ten second recording.\nOther cardiac parameters were computed from the 12-lead vector magnitude VM (e.g. the square root of the sum of squares at each digital sample) computed from the individual median beats. On the VM lead, the apex of the T wave is placed and used to compute the TpTe interval (using the end of the T wave from the GSMB) and the T wave amplitude (height in microvolt of the VM T peak from the isoelectric line). […] T wave symmetry index was computed using a proprietary approach based on Gaussian Mesa function modeling (GMF) of the repolarization waves (Badilini F et al. J Electrocardiol 2008, 41:588-594). Briefly, the ascending and descending phases of the VM T wave are modeled by two independent half-Gaussian curves (see FIG. 3). The standard deviations of these functions (σ1 and σ2) and indicators of the ascending/descending speed and their ratio is an index of symmetry (TSym=σ1/σ2; TSym=1 for a perfectly symmetric T wave, TSym<1 for slow-ascending/fast-descending T waves, T>1 for fast-ascending/slow-decending T waves).\nFor the pre-dose (baseline) ECGs, all parameters per time point were calculated as the averages of the triplicate ECGs. Computation of QTcB and QTcF was performed using the RR interval averaged from the total ECG acquisition duration (10 seconds) and in the case of the triplicate ECGs is based on the average QT and average HR of the replicate ECGs.\nThe over-reading cardiologist provided a clinical interpretation for each ECG at each time point. Each ECG was classified as Normal, Abnormal Clinically Insignificant (ACI), or Abnormal Clinically Significant (ACS). Results of this post-hoc analysis were used for an exposure-response evaluation for the changes in the electrophysiological parameters as a function of the concentration of KH176.",
  "data": [
    {"smiles": "Cc1c(C)c2c(c(C)c1O)CC[C@@](C)(C(=O)N[C@@H]1CCCNC1)O2.Cl", "note": "[KH176, (S)-6-hydroxy-2,5,7,8-tetramethyl-N-((R)-piperidin-3-yl)chroman-2-carboxamide hydrochloride]", "values": [
      {"measurement": "effect on QTcF", "setting": "MAD 100 mg b.i.d.", "result": "no effect"},
      {"measurement": "PR interval: largest median baseline increase", "setting": "MAD 200 mg", "result": 12, "unit": "ms"},
      {"measurement": "QTcF: largest individual increase", "setting": "MAD 200 mg", "result": 28.3},
      {"measurement": "QTcF: largest median baseline increase", "setting": "MAD 200 mg", "result": 13.3},
      {"measurement": "T-wave symmetry index: largest individual increase", "setting": "MAD 200 mg", "result": 0.6},
      {"measurement": "T-wave symmetry index: largest median baseline increase", "setting": "MAD 200 mg", "result": 0.45},
      {"measurement": "TpTe interval: largest individual increase", "setting": "MAD 200 mg", "result": 46, "unit": "ms"},
      {"measurement": "TpTe interval: largest median baseline increase", "setting": "MAD 200 mg", "result": 24, "unit": "ms"},
      {"measurement": "QTcF, median maximum change from baseline", "setting": "MAD 200 mg b.i.d., Day 5", "result": 13, "unit": "ms"},
      {"measurement": "PR interval: largest median baseline increase", "setting": "MAD 400 mg", "result": 19, "unit": "ms"},
      {"measurement": "QRS interval: largest individual increase", "setting": "MAD 400 mg", "result": 15.3, "unit": "ms"},
      {"measurement": "QRS interval: largest median baseline increase", "setting": "MAD 400 mg", "result": 9.7, "unit": "ms"},
      {"measurement": "QTcF: largest individual increase", "setting": "MAD 400 mg", "result": 43.7},
      {"measurement": "QTcF: largest median baseline increase", "setting": "MAD 400 mg", "result": 29.2},
      {"measurement": "T-wave symmetry index: largest individual increase", "setting": "MAD 400 mg", "result": 0.99},
      {"measurement": "T-wave symmetry index: largest median baseline increase", "setting": "MAD 400 mg", "result": 0.63},
      {"measurement": "TpTe interval: largest individual increase", "setting": "MAD 400 mg", "result": 62.7, "unit": "ms"},
      {"measurement": "TpTe interval: largest median baseline increase", "setting": "MAD 400 mg", "result": 42.3, "unit": "ms"},
      {"measurement": "QTcF, median maximum change from baseline at trough", "setting": "MAD 400 mg b.i.d., Day 6", "result": 29, "unit": "ms"}
    ]}
  ]
}
